For four compounds, EC50 and IC50 results are on record in patent publication US6462038B1, “Androgen receptor modulator compounds and methods” (Ligand Pharmaceuticals, Inc., priority 1999, dated 2002).

Common to all, as to type: cell-based
Experiment [1] concerns the target T1, ER (Homo sapiens, UniProt P03372).
T1 construct: expressed in transfected cells; host or cells: CV-1 cells
Briefly: co-transfection assay, ER agonist. As to the method:
(§1) CV-1 cells (African green monkey kidney fibroblasts) were cultured in the presence of Dulbecco's Modified Eagle Medium (DMEM) supplemented with 10% charcoal resin-stripped fetal bovine serum (CH-FBS) then transferred to 96-well microtiter plates one day prior to transfection.
(§2) Three to four replicates were used for each sample.
(§3) After 40 hours, the cells were washed with PBS, lysed with a Triton X-100-based buffer and assayed for LUC and β-Gal activities using a luminometer or spectrophotometer, respectively. For each replicate, the normalized response (NR) was calculated as: […]

The target in a further experiment is T2, MR (Homo sapiens, UniProt P08235).
T2 construct: expressed in transfected cells; host or cells: CV-1 cells
T2 sequence (P08235 1-984): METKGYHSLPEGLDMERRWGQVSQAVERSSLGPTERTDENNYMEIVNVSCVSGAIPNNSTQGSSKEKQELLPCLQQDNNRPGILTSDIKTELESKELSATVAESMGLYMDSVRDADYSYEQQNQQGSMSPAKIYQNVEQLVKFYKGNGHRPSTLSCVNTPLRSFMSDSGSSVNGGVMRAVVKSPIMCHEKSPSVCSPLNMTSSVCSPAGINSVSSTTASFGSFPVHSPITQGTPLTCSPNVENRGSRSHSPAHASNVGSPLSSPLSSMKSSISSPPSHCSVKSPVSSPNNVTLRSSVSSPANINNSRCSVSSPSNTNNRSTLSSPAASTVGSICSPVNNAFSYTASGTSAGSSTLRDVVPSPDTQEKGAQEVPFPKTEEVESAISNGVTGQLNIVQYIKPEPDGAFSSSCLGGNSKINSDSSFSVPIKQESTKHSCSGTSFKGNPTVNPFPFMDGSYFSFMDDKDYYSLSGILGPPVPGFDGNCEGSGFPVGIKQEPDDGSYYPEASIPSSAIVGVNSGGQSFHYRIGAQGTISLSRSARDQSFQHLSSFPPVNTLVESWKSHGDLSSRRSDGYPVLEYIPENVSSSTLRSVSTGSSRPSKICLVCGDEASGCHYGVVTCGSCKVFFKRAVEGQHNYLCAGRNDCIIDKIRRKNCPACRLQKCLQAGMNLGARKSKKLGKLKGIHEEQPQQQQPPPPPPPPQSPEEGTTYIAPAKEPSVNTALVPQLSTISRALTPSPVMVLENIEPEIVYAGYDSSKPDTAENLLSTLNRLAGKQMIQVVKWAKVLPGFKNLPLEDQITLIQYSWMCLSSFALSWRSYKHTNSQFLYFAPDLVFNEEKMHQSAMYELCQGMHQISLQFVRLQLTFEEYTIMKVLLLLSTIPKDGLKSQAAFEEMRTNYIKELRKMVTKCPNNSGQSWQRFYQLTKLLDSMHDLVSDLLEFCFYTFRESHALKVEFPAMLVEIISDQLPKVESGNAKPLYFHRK
In words: co-transfection assay, MR antagonist. As to the method:
as §1, §2, §3

A further experiment deals with T3, PR (Homo sapiens, UniProt P06401).
T3 construct: expressed in transfected cells; host or cells: CV-1 cells
T3 sequence (P06401 1-933): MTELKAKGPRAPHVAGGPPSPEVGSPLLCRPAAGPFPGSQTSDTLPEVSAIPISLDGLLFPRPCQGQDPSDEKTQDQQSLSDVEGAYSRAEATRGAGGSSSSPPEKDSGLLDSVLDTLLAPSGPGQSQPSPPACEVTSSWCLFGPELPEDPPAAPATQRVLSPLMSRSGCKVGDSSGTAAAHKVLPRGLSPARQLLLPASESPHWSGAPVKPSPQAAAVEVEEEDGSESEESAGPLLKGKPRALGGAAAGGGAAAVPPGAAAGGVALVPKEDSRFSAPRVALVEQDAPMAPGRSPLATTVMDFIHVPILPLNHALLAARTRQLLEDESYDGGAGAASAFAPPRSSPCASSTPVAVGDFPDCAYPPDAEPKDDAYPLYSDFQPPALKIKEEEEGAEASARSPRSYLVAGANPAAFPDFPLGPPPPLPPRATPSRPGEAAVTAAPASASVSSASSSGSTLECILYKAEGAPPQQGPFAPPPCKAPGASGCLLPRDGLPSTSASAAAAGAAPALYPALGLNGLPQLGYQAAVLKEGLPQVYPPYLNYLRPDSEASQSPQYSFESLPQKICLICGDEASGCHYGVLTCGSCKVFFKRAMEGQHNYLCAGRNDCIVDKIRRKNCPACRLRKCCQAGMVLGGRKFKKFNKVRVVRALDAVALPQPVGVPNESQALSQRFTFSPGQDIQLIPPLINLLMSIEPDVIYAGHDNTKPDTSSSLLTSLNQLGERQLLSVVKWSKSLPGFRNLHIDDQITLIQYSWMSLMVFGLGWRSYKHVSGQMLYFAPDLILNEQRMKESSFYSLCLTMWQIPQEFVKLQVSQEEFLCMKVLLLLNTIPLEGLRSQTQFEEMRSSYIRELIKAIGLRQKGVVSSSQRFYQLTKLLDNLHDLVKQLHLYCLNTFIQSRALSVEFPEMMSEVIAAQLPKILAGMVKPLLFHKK
Briefly: co-transfection assay, PR antagonist (in presence of progesterone). As to the method: as §1, §2, §3

Experiment [2] addresses T1, ER. Briefly: co-transfection assay, ER antagonist. As to the method:
as §1, §2, §3

T1 sequence (P03372 whole entry): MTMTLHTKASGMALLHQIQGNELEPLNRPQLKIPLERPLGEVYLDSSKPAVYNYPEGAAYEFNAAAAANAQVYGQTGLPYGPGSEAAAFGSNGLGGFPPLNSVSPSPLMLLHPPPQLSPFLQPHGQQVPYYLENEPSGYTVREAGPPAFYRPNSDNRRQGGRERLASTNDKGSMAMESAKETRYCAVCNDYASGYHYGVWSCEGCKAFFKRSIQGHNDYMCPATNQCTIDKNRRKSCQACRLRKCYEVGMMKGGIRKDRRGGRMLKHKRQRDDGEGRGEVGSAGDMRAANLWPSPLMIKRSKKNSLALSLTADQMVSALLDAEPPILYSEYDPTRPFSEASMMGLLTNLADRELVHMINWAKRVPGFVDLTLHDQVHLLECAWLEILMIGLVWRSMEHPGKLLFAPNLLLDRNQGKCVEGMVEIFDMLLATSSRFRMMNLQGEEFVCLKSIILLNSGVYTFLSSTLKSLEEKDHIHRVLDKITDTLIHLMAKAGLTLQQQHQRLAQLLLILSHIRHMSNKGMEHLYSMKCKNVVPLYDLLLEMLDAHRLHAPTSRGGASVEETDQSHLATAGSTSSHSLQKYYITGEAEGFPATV

The EC50 is the concentration that produces a half-maximal response. The IC50 is the concentration needed to halve the response being measured. For `CN1CCOc2cc3c(cc21)c(C(F)(F)F)cc(=O)n3C` [Compound 102, 1,2,3,6-Tetrahydro-1,6-dimethyl-9-(trifluoromethyl)-7H-[1,4]oxazino[3,2-g]quinolin-7-one], the EC50 on ER [1] is > 10 µM. The IC50 against MR was > 10 µM; at PR, 4.1 µM; against ER [2], 5.9 µM.

With `CCN1CCOc2cc3c(cc21)c(C(F)(F)F)cc(=O)n3C` [Compound 104, 1-Ethyl-1,2,3,6-tetrahydro-6-methyl-9-(trifluoromethyl)-7H-[1,4]oxazino[3,2-g]quinolin-7-one], on ER [1], the EC50 is > 10 µM. For the same compound, the IC50 at MR is 1.8 µM; on PR, 2 µM; against ER [2], > 10 µM.

Take `O=c1cc(C(F)(F)F)c2cc3c(cc2[nH]1)OCCN3CC(F)(F)F` [Compound 105, 1,2,3,6-Tetrahydro-1-(2,2,2-trifluoroethyl)-9-(trifluoromethyl)-7H-[1,4]oxazino[3,2-g]quinolin-7-one]: at ER [1], the EC50 was > 10 µM. Moreover, the figures for the IC50 at MR, at PR and against ER [2] were > 10 µM, 3 µM and > 10 µM, respectively.

As to `O=C1COc2cc3[nH]c(=O)cc(C(F)(F)F)c3cc2N1CC(F)(F)F` [Compound 137, 1,6-Dihydro-1-(2,2,2-trifluoroethyl)-9-(trifluoromethyl)-3H-[1,4]oxazino[3,2-g]-quinolin-2,7-dione], on ER [1], the EC50 was > 10 µM. The IC50 against MR, on PR and against ER [2] was > 10 µM throughout.
